Patent publication US9340590B2 (priority 2011, dated 2016)
pIC50: −log10 of the molar value. Like-named read-outs stand apart in the source and are kept apart here. Positions of bridges follow the written chain, without caps; N, C: chain ends. Non-standard residues stand in square brackets, D forms with d. Residues, ends and D or L forms follow the SMILES beside them. 2Pal = N[C@@H](Cc1ccccn1)C(=O)O

Key:
Assay in all cases: cell-based
hNav1.3 = hNav1.3 (Homo sapiens, UniProt Q9NY46); conditions: IonWorks Quattro, read-out: IWQ Use Nav1.3
hNav1.5 = hNav1.5 (Homo sapiens, UniProt Q14524); conditions: for pIC50: IonWorks Quattro, read-out: IWQ Use Nav1.5
Chain of hNav1.5 (Q14524 whole entry, looked up): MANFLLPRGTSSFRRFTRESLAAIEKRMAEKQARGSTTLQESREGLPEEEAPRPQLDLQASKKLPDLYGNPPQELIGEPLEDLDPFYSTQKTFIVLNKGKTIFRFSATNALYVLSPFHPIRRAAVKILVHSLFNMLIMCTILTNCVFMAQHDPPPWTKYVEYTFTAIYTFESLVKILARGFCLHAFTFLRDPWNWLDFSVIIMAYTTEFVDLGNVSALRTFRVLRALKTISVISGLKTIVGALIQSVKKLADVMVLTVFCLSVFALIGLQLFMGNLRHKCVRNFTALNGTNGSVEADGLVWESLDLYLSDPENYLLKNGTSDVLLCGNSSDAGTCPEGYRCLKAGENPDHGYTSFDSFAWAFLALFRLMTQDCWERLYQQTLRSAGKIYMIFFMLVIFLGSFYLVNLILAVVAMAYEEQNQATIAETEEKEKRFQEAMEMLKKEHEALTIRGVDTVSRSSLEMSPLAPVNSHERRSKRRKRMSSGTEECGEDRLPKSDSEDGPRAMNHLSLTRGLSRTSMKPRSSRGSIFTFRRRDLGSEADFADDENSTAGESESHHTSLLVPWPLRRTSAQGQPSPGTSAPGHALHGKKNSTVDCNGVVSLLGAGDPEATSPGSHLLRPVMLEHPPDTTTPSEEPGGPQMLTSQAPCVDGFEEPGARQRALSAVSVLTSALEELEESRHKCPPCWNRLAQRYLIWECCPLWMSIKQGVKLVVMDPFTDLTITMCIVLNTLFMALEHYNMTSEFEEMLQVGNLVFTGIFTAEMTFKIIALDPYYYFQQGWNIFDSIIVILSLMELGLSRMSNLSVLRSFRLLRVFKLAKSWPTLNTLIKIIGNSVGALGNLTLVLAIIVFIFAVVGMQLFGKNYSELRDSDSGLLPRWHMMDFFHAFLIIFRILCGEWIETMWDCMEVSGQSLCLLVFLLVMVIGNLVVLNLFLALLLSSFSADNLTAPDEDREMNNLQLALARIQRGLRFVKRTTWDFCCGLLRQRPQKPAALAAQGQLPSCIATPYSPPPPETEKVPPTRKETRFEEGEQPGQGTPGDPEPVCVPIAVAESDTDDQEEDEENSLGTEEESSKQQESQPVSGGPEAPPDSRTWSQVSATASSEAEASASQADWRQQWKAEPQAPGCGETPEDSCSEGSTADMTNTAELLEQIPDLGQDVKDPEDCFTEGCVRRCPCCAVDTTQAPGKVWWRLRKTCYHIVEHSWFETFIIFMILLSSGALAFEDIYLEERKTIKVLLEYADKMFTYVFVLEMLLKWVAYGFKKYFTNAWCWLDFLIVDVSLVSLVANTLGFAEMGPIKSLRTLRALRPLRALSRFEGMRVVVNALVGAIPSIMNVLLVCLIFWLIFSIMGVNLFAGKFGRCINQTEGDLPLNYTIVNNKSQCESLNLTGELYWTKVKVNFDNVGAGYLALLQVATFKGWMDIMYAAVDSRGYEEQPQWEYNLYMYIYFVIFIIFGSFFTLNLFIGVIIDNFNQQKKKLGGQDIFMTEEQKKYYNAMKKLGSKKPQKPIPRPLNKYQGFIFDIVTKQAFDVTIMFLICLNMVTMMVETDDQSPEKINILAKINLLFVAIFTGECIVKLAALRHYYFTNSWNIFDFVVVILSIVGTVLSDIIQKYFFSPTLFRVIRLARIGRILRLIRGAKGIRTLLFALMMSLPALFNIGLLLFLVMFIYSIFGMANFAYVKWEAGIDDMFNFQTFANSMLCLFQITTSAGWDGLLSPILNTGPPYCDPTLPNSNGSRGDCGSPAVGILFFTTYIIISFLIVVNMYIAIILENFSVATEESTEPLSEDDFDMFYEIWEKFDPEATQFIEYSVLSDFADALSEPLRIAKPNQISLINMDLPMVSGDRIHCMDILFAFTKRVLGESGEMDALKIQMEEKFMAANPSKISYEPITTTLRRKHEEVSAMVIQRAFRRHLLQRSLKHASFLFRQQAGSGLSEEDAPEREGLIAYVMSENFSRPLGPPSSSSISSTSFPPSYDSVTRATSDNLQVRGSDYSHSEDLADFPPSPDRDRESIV

hNav1.7 = hNav1.7 (Homo sapiens, UniProt Q15858); type: cell-based; conditions: IonWorks Quattro, read-out: IWQ Use Nav1.7
Chain of hNav1.7 (Q15858 whole entry, looked up): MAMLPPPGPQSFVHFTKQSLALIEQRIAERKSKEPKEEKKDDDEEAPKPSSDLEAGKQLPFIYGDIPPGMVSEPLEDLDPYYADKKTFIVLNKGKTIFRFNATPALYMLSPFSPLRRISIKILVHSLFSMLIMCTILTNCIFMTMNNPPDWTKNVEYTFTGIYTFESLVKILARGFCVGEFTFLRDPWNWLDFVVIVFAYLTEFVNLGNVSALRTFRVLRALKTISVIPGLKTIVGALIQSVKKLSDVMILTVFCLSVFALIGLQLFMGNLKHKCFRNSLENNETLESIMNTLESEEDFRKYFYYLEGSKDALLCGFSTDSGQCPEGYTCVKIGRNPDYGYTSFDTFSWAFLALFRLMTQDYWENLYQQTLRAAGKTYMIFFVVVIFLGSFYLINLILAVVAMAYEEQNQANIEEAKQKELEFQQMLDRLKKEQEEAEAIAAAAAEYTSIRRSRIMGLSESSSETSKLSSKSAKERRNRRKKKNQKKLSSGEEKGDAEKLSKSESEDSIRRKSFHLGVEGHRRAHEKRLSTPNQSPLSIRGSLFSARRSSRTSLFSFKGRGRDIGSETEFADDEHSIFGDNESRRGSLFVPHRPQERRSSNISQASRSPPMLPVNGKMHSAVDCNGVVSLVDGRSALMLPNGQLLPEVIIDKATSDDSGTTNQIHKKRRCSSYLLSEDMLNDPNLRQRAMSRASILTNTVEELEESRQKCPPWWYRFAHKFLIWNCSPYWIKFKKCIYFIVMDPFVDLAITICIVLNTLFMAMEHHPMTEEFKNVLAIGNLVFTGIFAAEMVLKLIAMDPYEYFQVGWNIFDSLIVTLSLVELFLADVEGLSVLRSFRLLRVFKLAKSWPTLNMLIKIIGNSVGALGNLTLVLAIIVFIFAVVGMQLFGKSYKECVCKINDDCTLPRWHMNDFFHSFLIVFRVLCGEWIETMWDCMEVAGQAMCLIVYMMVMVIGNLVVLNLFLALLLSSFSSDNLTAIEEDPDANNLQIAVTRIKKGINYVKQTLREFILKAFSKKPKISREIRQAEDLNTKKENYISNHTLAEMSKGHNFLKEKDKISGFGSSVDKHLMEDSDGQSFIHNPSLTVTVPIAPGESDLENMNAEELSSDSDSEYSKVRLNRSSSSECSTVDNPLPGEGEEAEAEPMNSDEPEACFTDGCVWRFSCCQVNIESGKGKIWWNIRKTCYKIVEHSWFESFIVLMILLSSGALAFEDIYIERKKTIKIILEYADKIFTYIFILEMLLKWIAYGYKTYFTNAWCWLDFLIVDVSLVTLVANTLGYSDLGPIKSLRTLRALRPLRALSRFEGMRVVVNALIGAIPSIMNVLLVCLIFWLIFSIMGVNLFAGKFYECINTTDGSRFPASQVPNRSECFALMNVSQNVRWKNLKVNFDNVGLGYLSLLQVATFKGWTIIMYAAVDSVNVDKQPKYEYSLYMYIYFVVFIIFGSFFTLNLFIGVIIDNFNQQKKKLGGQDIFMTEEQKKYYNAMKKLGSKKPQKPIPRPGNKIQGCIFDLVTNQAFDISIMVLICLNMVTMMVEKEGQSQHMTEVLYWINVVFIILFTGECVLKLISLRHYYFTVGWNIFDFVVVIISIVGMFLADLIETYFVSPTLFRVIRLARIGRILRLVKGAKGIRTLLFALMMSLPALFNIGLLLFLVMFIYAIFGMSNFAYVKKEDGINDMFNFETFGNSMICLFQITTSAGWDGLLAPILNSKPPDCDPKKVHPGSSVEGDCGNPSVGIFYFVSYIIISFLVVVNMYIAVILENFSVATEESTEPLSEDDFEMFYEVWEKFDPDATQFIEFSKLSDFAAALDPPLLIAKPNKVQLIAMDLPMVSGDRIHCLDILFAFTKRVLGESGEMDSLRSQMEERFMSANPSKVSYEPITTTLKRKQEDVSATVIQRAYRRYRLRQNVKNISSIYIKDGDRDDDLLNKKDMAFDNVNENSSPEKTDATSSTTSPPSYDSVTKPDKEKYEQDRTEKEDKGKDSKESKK

[1] = clamped to −110 mV, depolarized to −10 mV, 5 min after compound, n=2

## CC[C@H](C)[C@@H]1NC(=O)[C@@H]2CSSC[C@@H]3NC(=O)[C@H](C(C)C)NC(=O)[C@H](CC(C)C)NC(=O)[C@H](CC(N)=O)NC(=O)[C@@H]4CCCN4C(=O)[C@H](CCCNC(=N)N)NC(=O)[C@H](CSSC[C@H](NC(=O)[C@@H](N)CC(=O)O)C(=O)N[C@@H](CC(C)C)C(=O)NCC(=O)N[C@@H](C)C(=O)N[C@@H](CCSC)C(=O)N[C@@H](CCCNC(=N)N)C(=O)N[C@@H](CCCCN)C(=O)N2)NC(=O)[C@H](CSSC[C@@H](C(=O)N[C@@H](CCCCN)C(=O)N[C@@H](Cc2ccc(O)cc2)C(=O)N[C@H](C(=O)N[C@@H](Cc2ccccc2)C(N)=O)C(C)C)NC(=O)[C@H](Cc2c[nH]c4ccccc24)NC(=O)[C@H](CCCCN)NC(=O)[C@H](Cc2cnc[nH]2)NC(=O)[C@H](CC(C)C)NC(=O)[C@H](CCCNC(=N)N)NC(=O)[C@H](CO)NC3=O)NC(=O)[C@H](CCCCN)NC(=O)[C@H](CC(=O)O)NC(=O)[C@H](CC(N)=O)NC(=O)[C@H](CC(=O)O)NC(=O)[C@@H]2CCCN2C1=O [compound 255] (H-DCLGAMRKCIPDNDKCCRPNLVCSRLHKWCKYVF-NH2; disulfide 2-17, 9-23, 16-30)
hNav1.3; use-dependent block, hNav1.3
  pIC50: 6.17
hNav1.5; IWQ Use Nav1.5 (μM)
  IC50: 5 µM
hNav1.7; use-dependent block, hNav1.7
  pIC50: 6.55

## CC[C@H](C)[C@@H]1NC(=O)[C@@H]2CSSC[C@@H]3NC(=O)[C@H](C(C)C)NC(=O)[C@H](CC(C)C)NC(=O)[C@H](CC(N)=O)NC(=O)[C@@H]4CCCN4C(=O)[C@H](CCCNC(=N)N)NC(=O)[C@H](CSSC[C@H](NC(=O)[C@@H](N)CC(=O)O)C(=O)N[C@@H](CC(C)C)C(=O)NCC(=O)N[C@@H](Cc4ccccc4)C(=O)N[C@@H](CCSC)C(=O)N[C@@H](CCCNC(=N)N)C(=O)N[C@@H](CCCCN)C(=O)N2)NC(=O)[C@H](CSSC[C@@H](C(=O)N[C@@H](CCCCN)C(=O)N[C@@H](Cc2ccc(O)cc2)C(=O)N[C@H](C(=O)N[C@@H](Cc2ccccc2)C(N)=O)C(C)C)NC(=O)[C@H](Cc2c[nH]c4ccccc24)NC(=O)[C@H](CCCCN)NC(=O)[C@H](Cc2c[nH]cn2)NC(=O)[C@H](C(C)C)NC(=O)[C@H](CCCNC(=N)N)NC(=O)[C@H](CO)NC3=O)NC(=O)[C@H](CCCCN)NC(=O)[C@H](CC(=O)O)NC(=O)[C@H](CC(N)=O)NC(=O)[C@H](CC(=O)O)NC(=O)[C@@H]2CCCN2C1=O [compound 344] (H-DCLGFMRKCIPDNDKCCRPNLVCSRVHKWCKYVF-NH2; disulfide 2-17, 9-23, 16-30)
hNav1.3; Table 22, use, […]
  pIC50: 7.40
hNav1.5; Table 22, use, […]
  pIC50: 5.05
hNav1.7; Table 22, use, […]
  pIC50: 7.22

## CC[C@H](C)[C@@H]1NC(=O)[C@@H]2CSSC[C@@H]3NC(=O)[C@H](C(C)C)NC(=O)[C@H](CC(C)C)NC(=O)[C@H](CC(N)=O)NC(=O)[C@@H]4CCCN4C(=O)[C@H](CCCNC(=N)N)NC(=O)[C@H](CSSC[C@H](NC(=O)[C@H](CC(=O)O)NC(=O)[C@@H](N)Cc4c[nH]c5ccccc45)C(=O)N[C@@H](CC(C)C)C(=O)NCC(=O)N[C@@H](Cc4ccccc4)C(=O)N[C@@H](CCSC)C(=O)N[C@@H](CCCNC(=N)N)C(=O)N[C@@H](CCCCN)C(=O)N2)NC(=O)[C@H](CSSC[C@@H](C(=O)N[C@@H](CCCCN)C(=O)N[C@@H](Cc2ccc(O)cc2)C(=O)N[C@H](C(=O)N[C@@H](Cc2ccccc2)C(N)=O)C(C)C)NC(=O)[C@H](Cc2c[nH]c4ccccc24)NC(=O)[C@H](CCCCN)NC(=O)[C@H](Cc2cnc[nH]2)NC(=O)[C@H]([C@@H](C)O)NC(=O)[C@H](CCCNC(=N)N)NC(=O)[C@H](CO)NC3=O)NC(=O)[C@H](CCCCN)NC(=O)[C@H](CC(=O)O)NC(=O)[C@H](CC(N)=O)NC(=O)[C@H](CC(=O)O)NC(=O)[C@@H]2CCCN2C1=O [SEQ ID NO: 106]
hNav1.3; [1]
  pIC50: 6.60
hNav1.5; [1]
  pIC50: 4.66
hNav1.7; [1]
  pIC50: 6.66

## CC[C@H](C)[C@@H]1NC(=O)[C@@H]2CSSC[C@@H]3NC(=O)[C@H](CO)NC(=O)[C@H](CC(C)C)NC(=O)[C@H](CC(N)=O)NC(=O)[C@@H]4CCCN4C(=O)[C@H](CCCNC(=N)N)NC(=O)[C@H](CSSC[C@H](NC(=O)[C@@H](N)CC(=O)O)C(=O)N[C@@H](CC(C)C)C(=O)NCC(=O)N[C@@H](Cc4ccccc4)C(=O)N[C@@H](CCSC)C(=O)N[C@@H](CCCNC(=N)N)C(=O)N[C@@H](CCCCN)C(=O)N2)NC(=O)[C@H](CSSC[C@@H](C(=O)N[C@@H](CCCCN)C(=O)N[C@@H](Cc2ccc(O)cc2)C(=O)N[C@H](C(=O)N[C@@H](Cc2ccccc2)C(N)=O)C(C)C)NC(=O)[C@H](Cc2c[nH]c4ccccc24)NC(=O)[C@H](CCCCN)NC(=O)[C@H](Cc2c[nH]cn2)NC(=O)[C@H]([C@@H](C)O)NC(=O)[C@H](CCCNC(=N)N)NC(=O)[C@H](CO)NC3=O)NC(=O)[C@H](CCCCN)NC(=O)[C@H](CC(=O)O)NC(=O)[C@H](CC(N)=O)NC(=O)[C@H](CC(=O)O)NC(=O)[C@@H]2CCCN2C1=O [compound 323] (H-DCLGFMRKCIPDNDKCCRPNLSCSRTHKWCKYVF-NH2; disulfide 2-17, 9-23, 16-30)
hNav1.3; Use
  pIC50: 7.05
hNav1.5; Use
  pIC50: 5.35
hNav1.7; Use
  pIC50: 7.00

## CC[C@H](C)[C@@H]1NC(=O)[C@@H]2CSSC[C@@H]3NC(=O)[C@H](C(C)C)NC(=O)[C@H](CC(C)C)NC(=O)[C@H](CC(N)=O)NC(=O)[C@@H]4CCCN4C(=O)[C@H](CCCNC(=N)N)NC(=O)[C@H](CSSC[C@H](NC(=O)[C@@H](N)CC(=O)O)C(=O)N[C@@H](CC(C)C)C(=O)NCC(=O)N[C@@H](Cc4ccccc4)C(=O)N[C@@H](CCSC)C(=O)N[C@@H](CCCNC(=N)N)C(=O)N[C@@H](CCCCN)C(=O)N2)NC(=O)[C@H](CSSC[C@@H](C(=O)N[C@@H](CCCCN)C(=O)N[C@@H](Cc2ccccn2)C(=O)N[C@H](C(=O)N[C@@H](Cc2ccccc2)C(N)=O)C(C)C)NC(=O)[C@H](Cc2c[nH]c4ccccc24)NC(=O)[C@H](CCCCN)NC(=O)[C@H](Cc2c[nH]cn2)NC(=O)[C@H]([C@@H](C)O)NC(=O)[C@H](CCCNC(=N)N)NC(=O)[C@H](CO)NC3=O)NC(=O)[C@H](CCCCN)NC(=O)[C@H](CC(=O)O)NC(=O)[C@H](CC(N)=O)NC(=O)[C@H](CC(=O)O)NC(=O)[C@@H]2CCCN2C1=O [compound 384] (H-DCLGFMRKCIPDNDKCCRPNLVCSRTHKWCK[2Pal]VF-NH2; disulfide 2-17, 9-23, 16-30)
hNav1.3; Table 25, use, […]
  pIC50: 6.18
hNav1.5; Table 25, use, […]
  pIC50: 5.12
hNav1.7; Table 25, use, […]
  pIC50: 6.09

## CC[C@H](C)[C@@H]1NC(=O)[C@@H]2CSSC[C@@H]3NC(=O)[C@H](C(C)C)NC(=O)[C@H](CC(C)C)NC(=O)[C@H](CC(N)=O)NC(=O)[C@@H]4CCCN4C(=O)[C@H](Cc4c[nH]c5ccccc45)NC(=O)[C@H](CSSC[C@H](NC(=O)[C@@H](N)CC(=O)O)C(=O)N[C@@H](CC(C)C)C(=O)NCC(=O)N[C@@H](Cc4ccccc4)C(=O)N[C@@H](CCSC)C(=O)N[C@@H](CCCNC(=N)N)C(=O)N[C@@H](CCCCN)C(=O)N2)NC(=O)[C@H](CSSC[C@@H](C(=O)N[C@@H](CCCCN)C(=O)N[C@@H](Cc2ccc(O)cc2)C(=O)N[C@H](C(=O)N[C@@H](Cc2ccccc2)C(N)=O)C(C)C)NC(=O)[C@H](Cc2c[nH]c4ccccc24)NC(=O)[C@H](CCCCN)NC(=O)[C@H](Cc2c[nH]cn2)NC(=O)[C@H]([C@@H](C)O)NC(=O)[C@H](CCCNC(=N)N)NC(=O)[C@H](CO)NC3=O)NC(=O)[C@H](CCCCN)NC(=O)[C@H](CC(=O)O)NC(=O)[C@H](CC(N)=O)NC(=O)[C@H](CC(=O)O)NC(=O)[C@@H]2CCCN2C1=O [compound 174] (H-DCLGFMRKCIPDNDKCCWPNLVCSRTHKWCKYVF-NH2; disulfide 2-17, 9-23, 16-30)
hNav1.3; Use
  pIC50: 7.10
hNav1.5; Use
  pIC50: 4.83
hNav1.7; Use
  pIC50: 6.72
